Data on 14 compounds can be found in ChEMBL document CHEMBL3244230, “Synthesis and gastric antisecretory properties of 15-deoxy-16-hydroxyprostaglandin E analogues” (1977).

Structures are written as SMILES. The source made the active and inactive calls. The calls are words filed in the database; no cut-off is given here.

Assay [1] concerns Canis familiaris. As to the kind of experiment: Gastric antisecretory activity in iv dosed Mongrel dog with heidenhain pouch assessed as inhibition of histamine-induced total acid output by titrimetric method. It counts as functional. The following applies: Canis lupus familiaris, read-out: ID50 (the source's name).
The subject of assay [2] is Canis familiaris. As to the kind of experiment: Gastric antisecretory activity in Mongrel dog with heidenhain pouch assessed as inhibition of histamine-induced total acid output at 0.1 to 100 ug/kg, iv by titrimetric method relative to PGE1. It counts as functional, Canis lupus familiaris.
Assay [3] has as its system Canis familiaris. As to the kind of experiment: Gastric antisecretory activity in Mongrel dog with heidenhain pouch assessed as inhibition of histamine-induced total acid output at 30 ug/kg, iv by titrimetric method. It counts as functional, organism-based. The following applies: Canis lupus familiaris.

Turning to `CCCCCC(C)(O)C/C=C/[C@H]1[C@H](O)CC(=O)[C@@H]1CCCCCCC(=O)OC` (mixture of isomers), in the assay with Canis familiaris [1], the ED50 turned out to be 0.31 µg/kg. For the same compound, in the assay with Canis familiaris [2], the “fold change (FC)” value was determined as 19.9.

On to `CCCCC[C@H](O)/C=C/[C@H]1[C@H](O)CC(=O)[C@@H]1CCCCCCC(=O)O` [ALPROSTADIL], for which, in the assay with Canis familiaris [1], the ED50 stood at 6.7 µg/kg.

For the compound `CCCCC(O)C(C)(C)/C=C/[C@H]1[C@H](O)CC(=O)[C@@H]1CCCCCCC(=O)OC` (mixture of isomers), the ED50 with Canis familiaris [1] worked out at 140 µg/kg. In the assay with Canis familiaris [2], the “fold change (FC)” value is given as 0.05.

Turning to `CCCCC[C@H](O)/C=C/[C@H]1[C@H](O)CC(=O)[C@@H]1CCCCCCC(=O)OC`, in the assay with Canis familiaris [1], the ED50 was determined as 3.8 µg/kg. The “fold change (FC)” value in the assay on Canis familiaris [2] was 2.3.

`CCCCC(O)(CC)C/C=C/[C@H]1[C@H](O)CC(=O)[C@@H]1CCCCCCC(=O)OC` (mixture of isomers): the ED50 with Canis familiaris [1] was found to be 27.8 µg/kg. Moreover, the “fold change (FC)” value in the assay on Canis familiaris [2] is recorded as 0.21.

Consider `CCCCC(C)(O)C/C=C/[C@H]1CCC(=O)[C@@H]1CCCCCCC(=O)O` (mixture of isomers), for which the ED50 in the assay on Canis familiaris [1] came out at 4.3 µg/kg. Besides, the “fold change (FC)” value with Canis familiaris [2] stood at 1.5.

In the case of `CCCCC(C)(O)C/C=C/[C@H]1[C@H](O)CC(=O)[C@@H]1CCCCCCC(=O)OC` (mixture of isomers) [MISOPROSTOL], the ED50 with Canis familiaris [1] stood at 0.16 µg/kg. Further, the “fold change (FC)” value with Canis familiaris [2] stood at 47.8.

As for `CCCCC(O)C/C=C/[C@H]1[C@H](O)CC(=O)[C@@H]1C/C=C\CCCC(=O)OC` (mixture of isomers), in the assay on Canis familiaris [1], the ED50 stood at 4.1 µg/kg. The “fold change (FC)” value in the assay with Canis familiaris [2] was 1.9.

On to `CCCCC(C)(O)C/C=C/[C@H]1[C@H](O)CC(=O)[C@@H]1C/C=C\CCCC(=O)OC` (mixture of isomers), for which, in the assay with Canis familiaris [1], the ED50 came to 0.3 µg/kg. Also, the “fold change (FC)” value in the assay on Canis familiaris [2] turned out to be 24.9.

Regarding `CCCCC(C)(O)C/C=C\[C@H]1[C@H](O)CC(=O)[C@@H]1CCCCCCC(=O)OC` (mixture of isomers), the ED50 in the assay with Canis familiaris [1] turned out to be 39.8 µg/kg. Moreover, the “fold change (FC)” value in the assay on Canis familiaris [2] worked out at 0.17.

As to `CCCCC(C)(O)CCC[C@H]1[C@H](O)CC(=O)[C@@H]1CCCCCCC(=O)OC` (mixture of isomers), in the assay on Canis familiaris [1], the ED50 is 5.9 µg/kg. Moreover, the “fold change (FC)” value with Canis familiaris [2] is reported as 0.98.

As to `CCCCC(C)(O)C/C=C/[C@H]1[C@@H](O)CC(=O)[C@@H]1CCCCCCC(=O)OC` (mixture of isomers), in the assay on Canis familiaris [1], the ED50 turned out to be 16.9 µg/kg. Moreover, the “fold change (FC)” value with Canis familiaris [2] amounted to 0.21.

For `CCCC(C)(C)C(O)C/C=C/[C@H]1[C@H](O)CC(=O)[C@@H]1CCCCCCC(=O)OC` (mixture of isomers), the inhibition entry with Canis familiaris [3] is “inactive”.

For `CCCCC(O)C/C=C/[C@H]1[C@H](O)CC(=O)[C@@H]1CCCCCCC(=O)OC` (mixture of isomers), the ED50 in the assay with Canis familiaris [1] was 5.4 µg/kg. Besides, in the assay on Canis familiaris [2], the “fold change (FC)” value was determined as 0.7.
